Experimental data from PubChem BioAssay AID330 (DTP/NCI, 2004).
Where “and” joins values, the source holds several entries; their conditions need not be identical. Equal values may be shown once. Inconclusive results and toxic doses are left out. How the source made its calls: active means survival T/C of 150% or more; inactive means T/C below 125% in these data.

Test system: P388 leukemia ip, CD2F1 mice, survival T/C
Assay: NCI In Vivo Anticancer Drug Screen. Data for tumor model P388 Leukemia (intraperitoneal) in CD2F1 (CDF1) mice
Conditions: endpoint: median survival time, higher = longer survival
Procedure, shortened: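 Mice carrying the transplanted tumor received test compound or vehicle. Survival was recorded in each group, and the value is the treated-group measurement divided by that of the vehicle-treated control group.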

[1] = dose: 50.0 mg/kg/injection, schedule: Q01DX009 (ip), vehicle: saline with Tween-80
[2] = dose: 100.0 mg/kg/injection, schedule: Q01DX009 (ip), vehicle: saline with Tween-80
[3] = dose: 50.0 mg/kg/injection, schedule: Q01DX005 (ip), vehicle: Klucel (hydroxypropylcellulose) (HPC)
[4] = dose: 100.0 mg/kg/injection, schedule: Q01DX005 (ip), vehicle: Klucel (hydroxypropylcellulose) (HPC)
[5] = dose: 200.0 mg/kg/injection, schedule: Q01DX005 (ip), vehicle: Klucel (hydroxypropylcellulose) (HPC)
[6] = dose: 100.0 mg/kg/injection, schedule: Q04DX003 (ip), vehicle: saline
[7] = dose: 200.0 mg/kg/injection, schedule: Q04DX003 (ip), vehicle: saline
[8] = dose: 200.0 mg/kg/injection, schedule: Q01DX009 (ip), vehicle: saline with Tween-80
[9] = dose: 25.0 mg/kg/injection, schedule: Q01DX009 (ip), vehicle: saline
[10] = dose: 50.0 mg/kg/injection, schedule: Q01DX009 (ip), vehicle: saline
[11] = dose: 100.0 mg/kg/injection, schedule: Q01DX009 (ip), vehicle: saline

Measured: T/C

NC(=O)c1c(-c2ccccc2)nc2n1CCS2
inactive: dose: 100.0 mg/kg/injection, schedule: Q01DX001 (ip), vehicle: Klucel (hydroxypropylcellulose) (HPC) 106 % of control | dose: 200.0 mg/kg/injection, schedule: Q01DX001 (ip), vehicle: Klucel (hydroxypropylcellulose) (HPC) 109 % of control | dose: 400.0 mg/kg/injection, schedule: Q01DX001 (ip), vehicle: Klucel (hydroxypropylcellulose) (HPC) 107 % of control

CCOC(=O)C(C)(Br)C(=O)OCC
inactive: dose: 25.0 mg/kg/injection, schedule: Q01DX009 (ip), vehicle: saline with Tween-80 118 % of control | [1] 109 % of control | [2] 109 % of control

COP(=O)(OC)C1(C)CO1 (centres undefined)
inactive: dose: 50.0 mg/kg/injection, schedule: Q01DX009 (ip), vehicle: Klucel (hydroxypropylcellulose) (HPC) 87 % of control | dose: 100.0 mg/kg/injection, schedule: Q01DX009 (ip), vehicle: Klucel (hydroxypropylcellulose) (HPC) 91 % of control | dose: 200.0 mg/kg/injection, schedule: Q01DX009 (ip), vehicle: Klucel (hydroxypropylcellulose) (HPC) 86 % of control

C[C@]12C[C@@H](O)[C@H]3[C@@H](CCC4=C(O)C(=O)CC[C@@]43C)[C@@H]1CC[C@@H]2O
inactive: dose: 12.5 mg/kg/injection, schedule: Q01DX005 (ip), vehicle: Klucel (hydroxypropylcellulose) (HPC) 97 % of control | dose: 25.0 mg/kg/injection, schedule: Q01DX005 (ip), vehicle: Klucel (hydroxypropylcellulose) (HPC) 105 % of control | [3] 101 % of control | [4] 90 % of control | [5] 95 % of control

Cc1ccc(C2OC(N)=C(O)C2=O)cc1 (centres undefined)
inactive: dose: 60.0 mg/kg/injection, schedule: Q01DX005 (ip), vehicle: Klucel (hydroxypropylcellulose) (HPC) 107 % of control | dose: 120.0 mg/kg/injection, schedule: Q01DX005 (ip), vehicle: Klucel (hydroxypropylcellulose) (HPC) 100 % of control | dose: 240.0 mg/kg/injection, schedule: Q01DX005 (ip), vehicle: Klucel (hydroxypropylcellulose) (HPC) 93 % of control

NC(=S)n1nc(-c2ccccc2)c(N=Nc2cc(Cl)ccc2Cl)c1-c1ccccc1
inactive: dose: 100.0 mg/kg/injection, schedule: Q04DX002 (ip), vehicle: saline with Tween-80 89 % of control | dose: 200.0 mg/kg/injection, schedule: Q04DX002 (ip), vehicle: saline with Tween-80 90 % of control | dose: 400.0 mg/kg/injection, schedule: Q04DX002 (ip), vehicle: saline with Tween-80 110 % of control

CC12CCC(=O)C=C1CCCC2=O (centres undefined)
inactive: dose: 50.0 mg/kg/injection, schedule: Q04DX003 (ip), vehicle: saline 95 % of control | [6] 100 % of control | [7] 90 % of control

COC(=O)/C=C/c1oc(=O)c(CO)c(OC)c1CO
inactive: dose: 20.0 mg/kg/injection, schedule: Q01DX009 (ip), vehicle: Klucel (hydroxypropylcellulose) (HPC) 119 % of control | dose: 40.0 mg/kg/injection, schedule: Q01DX009 (ip), vehicle: Klucel (hydroxypropylcellulose) (HPC) 119 % of control | dose: 80.0 mg/kg/injection, schedule: Q01DX009 (ip), vehicle: Klucel (hydroxypropylcellulose) (HPC) 111 % of control

Cc1c(NC(=O)Nc2ccc(F)cc2[N+](=O)[O-])c(=O)n(-c2ccccc2)n1C
inactive: [1] 109 % of control | [2] 112 % of control | [8] 97 % of control

CN(C)C(=O)CC/C=C/C1C=CCCN1Cc1ccccc1 (centres undefined)
inactive: dose: 8.75 mg/kg/injection, schedule: Q01DX005 (ip), vehicle: Klucel (hydroxypropylcellulose) (HPC) 103 % of control | dose: 17.5 mg/kg/injection, schedule: Q01DX005 (ip), vehicle: Klucel (hydroxypropylcellulose) (HPC) 100 % of control | dose: 35.0 mg/kg/injection, schedule: Q01DX005 (ip), vehicle: Klucel (hydroxypropylcellulose) (HPC) 100 % of control

O=S(=O)(O)c1cccc(/C(=N\Nc2ccccn2)c2ccccn2)c1
inactive: [1] 100 % of control | [2] 102 % of control | [8] 100 % of control

CCC/C(C)=N/NC(=S)SC
inactive: dose: 6.25 mg/kg/injection, schedule: Q01DX009 (ip), vehicle: saline 100 % of control | dose: 12.5 mg/kg/injection, schedule: Q01DX009 (ip), vehicle: saline 98 % of control | [9] 98 % of control

CCOC(=O)/C(C#N)=C1/SC=C(N)N1c1ccccc1
inactive: [3] 98 % of control | [4] 94 % of control | [5] 91 % of control

CSCCn1ccnc1[N+](=O)[O-]
inactive: dose: 12.5 mg/kg/injection, schedule: Q01DX009 (ip), vehicle: distilled water + Tween-80 100 % of control | dose: 25.0 mg/kg/injection, schedule: Q01DX009 (ip), vehicle: distilled water + Tween-80 96 % of control | dose: 50.0 mg/kg/injection, schedule: Q01DX009 (ip), vehicle: distilled water + Tween-80 100 % of control | dose: 100.0 mg/kg/injection, schedule: Q01DX009 (ip), vehicle: distilled water + Tween-80 101 % of control | dose: 200.0 mg/kg/injection, schedule: Q01DX009 (ip), vehicle: distilled water + Tween-80 108 % of control

N#Cc1c2c(c(=O)n3c1[nH]c1ccccc13)CCCC2
inactive: dose: 60.0 mg/kg/injection, schedule: Q01DX005 (ip), vehicle: saline with Tween-80 93 % of control | dose: 120.0 mg/kg/injection, schedule: Q01DX005 (ip), vehicle: saline with Tween-80 94 % of control | dose: 240.0 mg/kg/injection, schedule: Q01DX005 (ip), vehicle: saline with Tween-80 90 % of control

CCCOC(=O)C1(N)CCCC1
inactive: [6] 100 % of control | [7] 113 % of control | dose: 400.0 mg/kg/injection, schedule: Q04DX003 (ip), vehicle: saline 118 % of control

C=C1C(=O)OC(CCCCCCCCCCCCCC(C)=O)[C@H]1C(=O)O (some centres undefined)
inactive: dose: 5.0 mg/kg/injection, schedule: Q01DX005 (ip), vehicle: Klucel (hydroxypropylcellulose) (HPC) 93 % of control | dose: 5.0 mg/kg/injection, schedule: Q01DX005 (ip), vehicle: saline 93 % of control | dose: 10.0 mg/kg/injection, schedule: Q01DX005 (ip), vehicle: Klucel (hydroxypropylcellulose) (HPC) 90 % of control | dose: 10.0 mg/kg/injection, schedule: Q01DX005 (ip), vehicle: saline 91 % of control | dose: 20.0 mg/kg/injection, schedule: Q01DX005 (ip), vehicle: Klucel (hydroxypropylcellulose) (HPC) 110 % of control and 90 % of control and 107 % of control | dose: 20.0 mg/kg/injection, schedule: Q01DX005 (ip), vehicle: saline 96 % of control | dose: 40.0 mg/kg/injection, schedule: Q01DX005 (ip), vehicle: Klucel (hydroxypropylcellulose) (HPC) 105 % of control and 98 % of control | dose: 80.0 mg/kg/injection, schedule: Q01DX005 (ip), vehicle: Klucel (hydroxypropylcellulose) (HPC) 107 % of control

Cc1cccc(C)c1N=Cc1ccc([N+](=O)[O-])cc1
inactive: [10] 100 % of control | [11] 99 % of control | dose: 200.0 mg/kg/injection, schedule: Q01DX009 (ip), vehicle: saline 102 % of control

CCOC(=O)C1CN2C(=O)CCC2C1=O (centres undefined)
inactive: dose: 60.0 mg/kg/injection, schedule: Q01DX005 (ip), vehicle: saline 104 % of control | dose: 120.0 mg/kg/injection, schedule: Q01DX005 (ip), vehicle: saline 103 % of control | dose: 240.0 mg/kg/injection, schedule: Q01DX005 (ip), vehicle: saline 103 % of control

O=S(=O)(c1cnccc1N1CCN(CCO)CC1)N1CCCCC1
inactive: [10] 101 % of control | [11] 105 % of control

CCC12CCC(=O)C=C1CCCC2=O (centres undefined)
inactive: dose: 25.0 mg/kg/injection, schedule: Q01DX009 (ip), vehicle: saline sonified 104 % of control | dose: 50.0 mg/kg/injection, schedule: Q01DX009 (ip), vehicle: saline sonified 86 % of control | dose: 100.0 mg/kg/injection, schedule: Q01DX009 (ip), vehicle: saline sonified 109 % of control

CN1[C@@H](CC(=O)c2ccccc2)CCC[C@H]1CC(=O)c1ccccc1
inactive: [9] 95 % of control | [10] 103 % of control | [11] 102 % of control

c1ccc2c(c1)CCc1c(-c3ccncc3)n[nH]c1-2
inactive: dose: 12.5 mg/kg/injection, schedule: Q01DX009 (ip), vehicle: other 108 % of control | dose: 25.0 mg/kg/injection, schedule: Q01DX009 (ip), vehicle: other 123 % of control | dose: 50.0 mg/kg/injection, schedule: Q01DX009 (ip), vehicle: other 106 % of control | dose: 100.0 mg/kg/injection, schedule: Q01DX009 (ip), vehicle: other 104 % of control | dose: 200.0 mg/kg/injection, schedule: Q01DX009 (ip), vehicle: other 100 % of control
